# Data from ChEMBL document CHEMBL5236651, “Synthesis and antibacterial activity of novel 2‑fluoro ketolide antibiotics with 11,12‑quinoylalkyl side chains” (2023).
# How the values were obtained:
# Type in all cases: functional
# [1] = tested on: Pseudomonas aeruginosa; assay: Antibacterial activity against Pseudomonas aeruginosa PAO1 assessed as inhibition of bacterial growth by CLSI based micro broth double dilution method
# [2] = tested on: Streptococcus pyogenes; assay: Antibacterial activity against erythromycin-resistant Streptococcus pyogenes 12-1 assessed as inhibition of bacterial growth by CLSI based micro broth double dilution method
# [3] = tested on: Enterococcus faecalis; assay: Antibacterial activity against vancomycin-sensitive Enterococcus faecalis 16-6 assessed as inhibition of bacterial growth by CLSI based micro broth double dilution method
# [4] = tested on: Staphylococcus aureus; assay: Antibacterial activity against methicillin-sensitive Staphylococcus aureus 15 assessed as inhibition of bacterial growth by CLSI based micro broth double dilution method
# [5] = tested on: Escherichia coli; assay: Antibacterial activity against ESBL-negative Escherichia coli ATCC 25922 assessed as inhibition of bacterial growth by CLSI based micro broth double dilution method
# [6] = tested on: Enterococcus faecalis; assay: Antibacterial activity against vancomycin-resistant Enterococcus faecalis ATCC 51575 assessed as inhibition of bacterial growth by CLSI based micro broth double dilution method
# [7] = tested on: Streptococcus pyogenes; assay: Antibacterial activity against erythromycin-sensitive Streptococcus pyogenes ATCC 19615 assessed as inhibition of bacterial growth by CLSI based micro broth double dilution method
# [8] = tested on: Enterococcus faecalis; assay: Antibacterial activity against vancomycin-resistant Enterococcus faecalis ATCC 51299 assessed as inhibition of bacterial growth by CLSI based micro broth double dilution method
# [9] = tested on: Klebsiella pneumoniae; assay: Antibacterial activity against ESBL negative Klebsiella pneumoniae 16-2 assessed as inhibition of bacterial growth by CLSI based micro broth double dilution method
# [10] = tested on: Klebsiella pneumoniae; assay: Antibacterial activity against ESBL positive Klebsiella pneumoniae ATCC 700603 assessed as inhibition of bacterial growth by CLSI based micro broth double dilution method
# [11] = tested on: Escherichia coli; assay: Antibacterial activity against Escherichia coli 16-7 assessed as inhibition of bacterial growth by CLSI based micro broth double dilution method
# [12] = tested on: Staphylococcus epidermidis; assay: Antibacterial activity against methicillin-sensitive Staphylococcus epidermidis 16-4 assessed as inhibition of bacterial growth by CLSI based micro broth double dilution method
# [13] = tested on: Pseudomonas aeruginosa; assay: Antibacterial activity against Pseudomonas aeruginosa ATCC 27853 assessed as inhibition of bacterial growth by CLSI based micro broth double dilution method
# [14] = tested on: Streptococcus pneumoniae; assay: Antibacterial activity against erythromycin-resistant Streptococcus pneumoniae 12-3 assessed as inhibition of bacterial growth by CLSI based micro broth double dilution method
# [15] = tested on: Enterococcus faecalis; assay: Antibacterial activity against vancomycin-sensitive Enterococcus faecalis […] assessed as inhibition of bacterial growth by CLSI based micro broth double dilution method
# [16] = tested on: Pseudomonas aeruginosa; assay: Antibacterial activity against Pseudomonas aeruginosa 16-11 assessed as inhibition of bacterial growth by CLSI based micro broth double dilution method
# [17] = tested on: Staphylococcus aureus; assay: Antibacterial activity against methicillin-sensitive Staphylococcus aureus ATCC 29213 assessed as inhibition of bacterial growth by CLSI based micro broth double dilution method
# [18] = tested on: Staphylococcus epidermidis; assay: Antibacterial activity against methicillin-sensitive Staphylococcus epidermidis ATCC 12228 assessed as inhibition of bacterial growth by CLSI based micro broth double dilution method
# [19] = tested on: Escherichia coli; assay: Antibacterial activity against ESBL-positive Escherichia coli ATCC 35218 assessed as inhibition of bacterial growth by CLSI based micro broth double dilution method
# [20] = tested on: Streptococcus pneumoniae; assay: Antibacterial activity against erythromycin-sensitive Streptococcus pneumoniae ATCC 49619 assessed as inhibition of bacterial growth by CLSI based micro broth double dilution method
# [21] = tested on: Staphylococcus aureus; assay: Antibacterial activity against methicillin-sensitive Staphylococcus aureus 16-1 assessed as inhibition of bacterial growth by CLSI based micro broth double dilution method
# [22] = tested on: Klebsiella pneumoniae; assay: Antibacterial activity against ESBL negative Klebsiella pneumoniae 7 assessed as inhibition of bacterial growth by CLSI based micro broth double dilution method
Structure (SMILES),MIC [1],MIC [2],MIC [3],MIC [4],MIC [5],MIC [6],MIC [7],MIC [8],MIC [9],MIC [10],MIC [11],MIC [12],MIC [13],MIC [14],MIC [15],MIC [16],MIC [17],MIC [18],MIC [19],MIC [20],further results
CC[C@H]1OC(=O)[C@@](C)(F)C(=O)[C@H](C)[C@@H](O[C@@H]2O[C@H](C)C[C@H](N(C)C)[C@H]2O)[C@@](C)(OC)C[C@@H](C)C(=O)[C@H](C)[C@H]2N(CCCN(C(=O)c3ccccc3)c3cnc4ccccc4c3)C(=O)O[C@]12C,> 32 µg/mL,32 µg/mL,> 32 µg/mL,0.25 µg/mL,> 32 µg/mL,> 32 µg/mL,0.03 µg/mL,> 32 µg/mL,> 32 µg/mL,> 32 µg/mL,> 32 µg/mL,1 µg/mL,> 32 µg/mL,0.06 µg/mL,0.12 µg/mL,> 32 µg/mL,0.25 µg/mL,0.12 µg/mL,> 32 µg/mL,≤ 0.016 µg/mL,MIC [21]: 0.25 µg/mL; MIC [22]: > 32 µg/mL
CC[C@H]1OC(=O)[C@@](C)(F)C(=O)[C@H](C)[C@@H](O[C@@H]2O[C@H](C)C[C@H](N(C)C)[C@H]2O)[C@@](C)(OC)C[C@@H](C)C(=O)[C@H](C)[C@H]2N(CCCNc3cnc4ccccc4c3)C(=O)O[C@]12C,16 µg/mL,32 µg/mL,> 32 µg/mL,0.12 µg/mL,16 µg/mL,> 32 µg/mL,0.12 µg/mL,> 32 µg/mL,> 32 µg/mL,> 32 µg/mL,32 µg/mL,0.12 µg/mL,32 µg/mL,≤ 0.016 µg/mL,0.06 µg/mL,32 µg/mL,0.12 µg/mL,0.12 µg/mL,32 µg/mL,≤ 0.016 µg/mL,MIC [21]: 0.12 µg/mL; MIC [22]: > 32 µg/mL
CC[C@H]1OC(=O)[C@@](C)(F)C(=O)[C@H](C)[C@@H](O[C@@H]2O[C@H](C)C[C@H](N(C)C)[C@H]2O)[C@@](C)(OC)C[C@@H](C)C(=O)[C@H](C)[C@H]2N(CCCN(C(=O)CCc3ccccc3)c3cnc4ccccc4c3)C(=O)O[C@]12C,> 32 µg/mL,16 µg/mL,> 32 µg/mL,1 µg/mL,> 32 µg/mL,> 32 µg/mL,0.5 µg/mL,> 32 µg/mL,> 32 µg/mL,> 32 µg/mL,> 32 µg/mL,4 µg/mL,> 32 µg/mL,0.06 µg/mL,0.5 µg/mL,> 32 µg/mL,1 µg/mL,0.5 µg/mL,> 32 µg/mL,≤ 0.016 µg/mL,MIC [21]: 1 µg/mL; MIC [22]: > 32 µg/mL
CC[C@H]1OC(=O)[C@@](C)(F)C(=O)[C@H](C)[C@@H](O[C@@H]2O[C@H](C)C[C@H](N(C)C)[C@H]2O)[C@@](C)(OC)C[C@@H](C)C(=O)[C@H](C)[C@H]2N(CCCN(C(=O)/C=C/c3ccccc3)c3cnc4ccccc4c3)C(=O)O[C@]12C,> 32 µg/mL,8 µg/mL,> 32 µg/mL,1 µg/mL,> 32 µg/mL,> 32 µg/mL,0.25 µg/mL,> 32 µg/mL,> 32 µg/mL,32 µg/mL,> 32 µg/mL,2 µg/mL,> 32 µg/mL,0.25 µg/mL,0.5 µg/mL,> 32 µg/mL,1 µg/mL,1 µg/mL,> 32 µg/mL,≤ 0.016 µg/mL,MIC [21]: 1 µg/mL; MIC [22]: > 32 µg/mL
CC[C@H]1OC(=O)[C@@](C)(F)C(=O)[C@H](C)[C@@H](O[C@@H]2O[C@H](C)C[C@H](N(C)C)[C@H]2O)[C@@](C)(OC)C[C@@H](C)C(=O)[C@H](C)[C@H]2N(CCCN(Cc3ccccc3)c3cnc4ccccc4c3)C(=O)O[C@]12C,> 32 µg/mL,8 µg/mL,> 32 µg/mL,0.5 µg/mL,> 32 µg/mL,> 32 µg/mL,0.12 µg/mL,> 32 µg/mL,> 32 µg/mL,32 µg/mL,> 32 µg/mL,1 µg/mL,> 32 µg/mL,0.25 µg/mL,0.5 µg/mL,> 32 µg/mL,1 µg/mL,0.25 µg/mL,> 32 µg/mL,0.03 µg/mL,MIC [21]: 0.5 µg/mL; MIC [22]: 8 µg/mL
CC[C@H]1OC(=O)[C@@](C)(F)C(=O)[C@H](C)[C@@H](O[C@@H]2O[C@H](C)C[C@H](N(C)C)[C@H]2O)[C@@](C)(OC)C[C@@H](C)C(=O)[C@H](C)[C@H]2N(CCCN(C(C)=O)c3cnc4ccccc4c3)C(=O)O[C@]12C,> 32 µg/mL,> 32 µg/mL,> 32 µg/mL,0.25 µg/mL,> 32 µg/mL,> 32 µg/mL,0.25 µg/mL,> 32 µg/mL,> 32 µg/mL,32 µg/mL,> 32 µg/mL,1 µg/mL,> 32 µg/mL,0.25 µg/mL,0.12 µg/mL,> 32 µg/mL,0.25 µg/mL,0.25 µg/mL,> 32 µg/mL,0.06 µg/mL,MIC [21]: 0.25 µg/mL; MIC [22]: > 32 µg/mL
